In patent publication US10383867B2, “Quinoline derivatives and their use for treating endoplasmic reticulum stress-related diseases and disorders” (priority 2015, dated 2019):

tested on: HEK293 cells / N2a cells under ER stress; test: ER stress cell rescue assay (protection against thapsigargin- or hydrogen peroxide-induced cell-death); format: cell-based, human (HEK293), mouse (N2a); conditions: cell rescue from induced ER stress; cell line of the EC50 not specified
Procedure: Protection against Thapsigargin (TG)-induced Cell-death. Human embryonic kidney (HEK293) cells were grown in Dulbecco's Modified Eagle's Medium (DMEM) with 10% FBS and 1% antibiotic antimycotic solution (ABAM). Mouse neuroblastoma (N2a) cells were grown in 1:1 DMIEM:OPTI-MEM® with 5% FBS and 1% ABAM. All cells were grown in 10% CO2 in a humidified environment of the incubator. Cells grown in 96-well plates were exposed to a test compound (20 μM) for 2 hrs before addition of thapsigargin (15 μM for HEK293 cells and 1 μM for N2a cells) to induce ER stress. After incubation in cell-culture incubator for 24 hrs, ALAMARBLUE® regent (10% v/v) was added to the wells. Fluorescence reading was taken 2 hrs after the addition of the ALAMARBLUE® regent. Cell-viability was calculated as a percentage of relative fluorescence unit (RFU) compared to control.
Protection against Hydrogen Peroxide-induced Cell-death. N2a cell grown in 96-well plates were exposed to a test compound (40 μM) for 2 hrs before addition of hydrogen peroxide (200 μM). After 40 min of incubation with hydrogen peroxide, ALAMARBLUE® regent (10% v/v) was added to the wells. Fluorescence reading was taken 2 hrs after the addition of the ALAMARBLUE® regent. Cell-viability was calculated as a percentage of relative fluorescence unit (RFU) compared to control.
The results are summarized in Table 1, where, for ER stress cell rescue ECso values, A represents a value smaller than 20 μM, B represents a value between 20 μM to 100 μM, C represents a value greater than 100 μM.

Question: Cc1ccc2cccc(/C=C/c3ccc(OC(C)C)cc3)c2n1 [A1, (E)-8-(Isopropoxystyryl)-2-methylquinoline] was tested. Which EC50 did it give?
Answer: The EC50 was < 20 µM.

Question: Cc1ccc2cccc(-c3nc(-c4ccc(OC(C)C)cc4)no3)c2n1 [B1, 3-(4-Isopropoxyphenyl)-5-(2-methylquinolin-8-yl)-1,2,4-oxadiazole] was tested. Which EC50 did it give?
Answer: Its EC50 is < 20 µM.

Question: For Cc1ccc2cccc(-c3nc(-c4ccc(Br)s4)no3)c2n1 [B2, 3-(5-Bromothiophen-2-yl)-5-(2-methylquinolin-8-yl)-1,2,4-oxadiazole], which EC50 is on record?
Answer: Its EC50 is < 20 µM.

Question: With Cc1ccc2cccc(NCc3ccc(OC(C)C)cc3)c2n1 [C1, N-((4-Isopropoxyphenyl)methyl)-2-methylquinolin-8-amine] as the molecule, how does the EC50 read?
Answer: The EC50 was < 20 µM.

Question: Which EC50 does the source give for Cc1ccc2cccc(NCc3cc(Br)cs3)c2n1 [C2, N-((4-Bromothiophen-2-yl)methyl)-2-methylquinolin-8-amine] here?
Answer: The EC50 was < 20 µM.

Question: For Cc1ccc2cccc(NCc3ccc(Br)s3)c2n1 [C3, N-((5-Bromothiophen-2-yl)methyl)-2-methylquinolin-8-amine], which EC50 is on record?
Answer: The EC50 was < 20 µM.

Question: For Cc1ccc2cccc(NS(=O)(=O)c3ccc(OC(C)C)cc3)c2n1 [D1, N-(2-Methylquinolin-8-yl)-5-isopropoxyphenyl-2-sulfonamide], which EC50 is on record?
Answer: Its EC50 is < 20 µM.

Question: Which EC50 does the source give for Cc1ccc2cccc(NS(=O)(=O)c3cc(Br)cs3)c2n1 [D2, 4-Bromo-N-(2-methylquinolin-8-yl)thiophene-2-sulfonamide] here?
Answer: The EC50 was < 20 µM.

Question: Which EC50 does the source give for Cc1ccc2cccc(NS(=O)(=O)c3ccc(Br)s3)c2n1 [D3, 5-Bromo-N-(2-methylquinolin-8-yl)thiophene-2-sulfonamide] here?
Answer: The EC50 was < 20 µM.

tested on: SERCA; test: Activation of SERCA (NADH-linked, enzyme-coupled ATPase assay); format: biochemical; conditions: SERCA ATPase, compound at 10 μM
Procedure: Test compounds were characterized over a range of concentrations using an NADH-linked, enzyme-coupled ATPase assay. Each well contained […] of SR vesicles (optimized for skeletal or cardiac SR, respectively), 50 mM MOPS (pH 7.0), 100 mM KCl, 5 mM MgCl2, 1 mM EGTA, 0.2 mM NADH, 1 mM phosphoenol pyruvate, 5 IU pyruvate kinase, 5 IU lactate dehydrogenase, and […] A23187 (a calcium ionophore), and CaCl2 was added to set free [Ca^2+] to the specific values. The assay was started upon addition of ATP at a final concentration of 5 mM, and read in a SpectraMax Plus microplate spectrophotometer and the ATPase activities were fitted using the Hill function. ECso values were determined as the concentrations of the test compounds that were required for 50% activation of the maximum Vmax.
The biological results are summarized in Table 1, wherein, for SERCA ATPase EC50 values, A represents a value smaller than 20 μM, B represents a value between 20 μM to 100 μM, C represents a value greater than 100 μM; and for increases in Vmax at 10 μM, A′ represents an increase greater than 50%, B′ represents an increase between 20 to 50%, and C′ represents an increase no greater than 20%.

Question: Which “Increase in Vmax at 10 μM” value does the source give for Cc1ccc2cccc(-c3nc(-c4ccc(OC(C)C)cc4)no3)c2n1 [B1, 3-(4-Isopropoxyphenyl)-5-(2-methylquinolin-8-yl)-1,2,4-oxadiazole] here?
Answer: The value was “B′ (B′ represents an increase between 20 to 50%)”.

Question: How did the “Increase in Vmax at 10 μM” value turn out when Cc1ccc2cccc(-c3nc(-c4ccc(Br)s4)no3)c2n1 [B2, 3-(5-Bromothiophen-2-yl)-5-(2-methylquinolin-8-yl)-1,2,4-oxadiazole] was run?
Answer: Its value is “B′ (B′ represents an increase between 20 to 50%)”.

Question: Which “Increase in Vmax at 10 μM” value does the source give for Cc1ccc2cccc(NCc3ccc(OC(C)C)cc3)c2n1 [C1, N-((4-Isopropoxyphenyl)methyl)-2-methylquinolin-8-amine] here?
Answer: The value was “B′ (B′ represents an increase between 20 to 50%)”.

Question: Which “Increase in Vmax at 10 μM” value does the source give for Cc1ccc2cccc(NCc3cc(Br)cs3)c2n1 [C2, N-((4-Bromothiophen-2-yl)methyl)-2-methylquinolin-8-amine] here?
Answer: The value was “B′ (B′ represents an increase between 20 to 50%)”.

Question: How did the “Increase in Vmax at 10 μM” value turn out when Cc1ccc2cccc(NCc3ccc(Br)s3)c2n1 [C3, N-((5-Bromothiophen-2-yl)methyl)-2-methylquinolin-8-amine] was run?
Answer: Its value is “B′ (B′ represents an increase between 20 to 50%)”.

Question: How did the “Increase in Vmax at 10 μM” value turn out when Cc1ccc2cccc(NS(=O)(=O)c3ccc(OC(C)C)cc3)c2n1 [D1, N-(2-Methylquinolin-8-yl)-5-isopropoxyphenyl-2-sulfonamide] was run?
Answer: Its value is “C′ (C′ represents an increase no greater than 20%)”.

Question: For Cc1ccc2cccc(NS(=O)(=O)c3cc(Br)cs3)c2n1 [D2, 4-Bromo-N-(2-methylquinolin-8-yl)thiophene-2-sulfonamide], which “Increase in Vmax at 10 μM” value is on record?
Answer: The value was “B′ (B′ represents an increase between 20 to 50%)”.

Question: Cc1ccc2cccc(NS(=O)(=O)c3ccc(Br)s3)c2n1 [D3, 5-Bromo-N-(2-methylquinolin-8-yl)thiophene-2-sulfonamide] was tested. Which “Increase in Vmax at 10 μM” value did it give?
Answer: The value was “B′ (B′ represents an increase between 20 to 50%)”.

same assay, conditions: SR vesicles; concentration for 50% activation of the maximum Vmax

Question: How did the EC50 turn out when Cc1ccc2cccc(-c3nc(-c4ccc(OC(C)C)cc4)no3)c2n1 [B1, 3-(4-Isopropoxyphenyl)-5-(2-methylquinolin-8-yl)-1,2,4-oxadiazole] was run?
Answer: The EC50 was < 20 µM.

Question: Which EC50 does the source give for Cc1ccc2cccc(-c3nc(-c4ccc(Br)s4)no3)c2n1 [B2, 3-(5-Bromothiophen-2-yl)-5-(2-methylquinolin-8-yl)-1,2,4-oxadiazole] here?
Answer: The EC50 was < 20 µM.

Question: For Cc1ccc2cccc(NCc3ccc(OC(C)C)cc3)c2n1 [C1, N-((4-Isopropoxyphenyl)methyl)-2-methylquinolin-8-amine], which EC50 is on record?
Answer: Its EC50 is < 20 µM.

Question: Cc1ccc2cccc(NCc3cc(Br)cs3)c2n1 [C2, N-((4-Bromothiophen-2-yl)methyl)-2-methylquinolin-8-amine] was tested. Which EC50 did it give?
Answer: Its EC50 is < 20 µM.

Question: For Cc1ccc2cccc(NCc3ccc(Br)s3)c2n1 [C3, N-((5-Bromothiophen-2-yl)methyl)-2-methylquinolin-8-amine], which EC50 is on record?
Answer: The EC50 was < 20 µM.

Question: Cc1ccc2cccc(NS(=O)(=O)c3ccc(OC(C)C)cc3)c2n1 [D1, N-(2-Methylquinolin-8-yl)-5-isopropoxyphenyl-2-sulfonamide] was tested. Which EC50 did it give?
Answer: The EC50 was < 20 µM.

Question: With Cc1ccc2cccc(NS(=O)(=O)c3cc(Br)cs3)c2n1 [D2, 4-Bromo-N-(2-methylquinolin-8-yl)thiophene-2-sulfonamide] as the molecule, how does the EC50 read?
Answer: Its EC50 is < 20 µM.

Question: With Cc1ccc2cccc(NS(=O)(=O)c3ccc(Br)s3)c2n1 [D3, 5-Bromo-N-(2-methylquinolin-8-yl)thiophene-2-sulfonamide] as the molecule, how does the EC50 read?
Answer: The EC50 was < 20 µM.
